Reference: patent US12655116B2, “Substituted isophthalic acid diamides” (Bayer Aktiengesellschaft, priority 2020, dated 2026)

Legend:
MATIN [1] = assay: Pre-emergence herbicidal action against MATIN; type: in vivo, Matricaria inodora
Outline: (§1)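 Herbicidal effect was assessed 3 weeks after treatment by visual comparison with untreated controls, 100% denoting dead plants. Aqueous WP or EC preparations had been applied at 600 to 800 l/ha with 0.2% wetting agent to the soil covering freshly sown seeds.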

ABUTH [2] = assay: Pre-emergence herbicidal action against ABUTH; type: in vivo, Abutilon theophrasti
Outline: as §1

DIGSA [3] = assay: Post-emergence herbicidal action against DIGSA; type: in vivo, Digitaria sanguinalis; settings: 20 g/ha
Outline: (§2)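 Post-emergence greenhouse test; one-leaf stage, 2–3 wk post-sowing, sandy loam. Foliar spray of WP/EC in water, 600–800 l/ha, +0.2% wetting agent. Visual % action at ~3 wk vs untreated (100% = plants dead).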

VIOTR [4] = assay: Pre-emergence herbicidal action against VIOTR; type: in vivo, Viola tricolor
Outline: as §1

DIGSA [5] = assay: Pre-emergence herbicidal action against DIGSA; type: in vivo, Digitaria sanguinalis
Outline: as §1

VERPE [6] = assay: Post-emergence herbicidal action against VERPE; type: in vivo, Veronica persica
Outline: as §2

ABUTH [7] = assay: Post-emergence herbicidal action against ABUTH; type: in vivo, Abutilon theophrasti; settings: dosage 20 g/ha, visual assessment about 3 weeks after treatment vs untreated controls
Outline: as §2

AMARE [8] = assay: Pre-emergence herbicidal action against AMARE; type: in vivo, Amaranthus retroflexus
Outline: as §1

PHBPU [9] = assay: Pre-emergence herbicidal action against PHBPU; type: in vivo, Pharbitis purpurea; settings: dosage 80 g/ha
Outline: as §1

ECHCG [10] = assay: Pre-emergence herbicidal action against ECHCG; type: in vivo, Echinochloa crus-galli
Outline: as §1

PHBPU [11] = assay: Post-emergence herbicidal action against PHBPU; type: in vivo, Pharbitis purpurea; settings: dosage 20 g/ha
Outline: as §2

ALOMY [12] = assay: Pre-emergence herbicidal action against ALOMY; type: in vivo, Alopecurus myosuroides
Outline: as §1

ECHCG [13] = assay: Post-emergence herbicidal action against ECHCG; type: in vivo, Echinochloa crus-galli; settings: dosage 20 g/ha
Outline: as §2

SETVI [14] = assay: Pre-emergence herbicidal action against SETVI; type: in vivo, Setaria viridis
Outline: as §1

POLCO = assay: Pre-emergence herbicidal action against POLCO; type: in vivo, Polygonum convolvulus; settings: dosage 80 g/ha
Outline: as §1

AVEFA [15] = assay: Post-emergence herbicidal action against AVEFA; type: in vivo, Avena fatua; settings: visual assessment about 3 weeks after treatment, 100% = plants have died, 0% = like control plants
Outline: as §2

VIOTR [16] = assay: Post-emergence herbicidal action against VIOTR; type: in vivo, Viola tricolor
Outline: as §2

LOLRI = assay: Pre-emergence herbicidal action against LOLRI; type: in vivo, Lolium rigidum; settings: 80 g/ha
Outline: as §1

AMARE [17] = assay: Post-emergence herbicidal action against AMARE; type: in vivo, Amaranthus retroflexus; settings: 20 g/ha, visual assessment about 3 weeks after treatment, 100% = plants have died, 0% = like control plants
Outline: as §2

MATIN [18] = assay: Post-emergence herbicidal action against MATIN; type: in vivo, Matricaria inodora; settings: dosage 20 g/ha
Outline: as §2

VERPE [19] = assay: Pre-emergence herbicidal action against VERPE; type: in vivo, Veronica persica; settings: dosage 80 g/ha
Outline: as §1

SETVI [20] = assay: Post-emergence herbicidal action against SETVI; type: in vivo, Setaria viridis; settings: dosage 20 g/ha
Outline: as §2

ALOMY [21] = assay: Post-emergence herbicidal action against ALOMY; type: in vivo, Alopecurus myosuroides; settings: visual assessment about 3 weeks after treatment vs untreated controls
Outline: as §2

AVEFA [22] = assay: Pre-emergence herbicidal action against AVEFA; type: in vivo, Avena fatua; settings: 80 g/ha, pre-emergence
Outline: as §1

[23] = 80 g/ha, scored visually after 3 weeks vs untreated controls (100% = plants have died, 0% = like control plants)

## Cn1nnnc1NC(=O)c1ccc(C(F)(F)F)c(C(=O)NCC2CC2)c1Cl [Example 1-132]
MATIN [1]; dosage 20 g/ha
  Pre-emergence action against MATIN in %: 100%
MATIN [1]; dosage 80 g/ha
  Pre-emergence action against MATIN in %: 100%
ABUTH [2]; [23]
  Pre-emergence action against ABUTH (herbicidal activity): 100%
ABUTH [2]; dosage 20 g/ha, scored visually after 3 weeks vs untreated controls, 100% = plants have died, 0% = like control plants
  Pre-emergence action against ABUTH (herbicidal activity in percent): 100%
DIGSA [3]
  Post-emergence action against DIGSA: 90%
VIOTR [4]; dosage 20 g/ha
  Pre-emergence action against VIOTR in %: 100%
VIOTR [4]; dosage 80 g/ha
  Pre-emergence action against VIOTR in %: 100%
DIGSA [5]; dosage 20 g/ha
  Pre-emergence action against DIGSA in %: 100%
DIGSA [5]; dosage 80 g/ha
  Pre-emergence action against DIGSA in %: 100%
VERPE [6]; 5 g/ha
  Post-emergence action against VERPE in %: 90%
VERPE [6]; 20 g/ha
  Post-emergence action against VERPE in %: 90%
ABUTH [7]
  Post-emergence action against ABUTH in %: 80%
AMARE [8]; 20 g/ha, scored visually after 3 weeks vs untreated controls, 100% = plants have died, 0% = like control plants
  Pre-emergence action against AMARE in %: 100%
AMARE [8]; [23]
  Pre-emergence action against AMARE in %: 100%
PHBPU [9]
  Pre-emergence action against PHBPU in %: 80%
ECHCG [10]; 20 g/ha
  Pre-emergence action against ECHCG in %: 90%
ECHCG [10]; 80 g/ha
  Pre-emergence action against ECHCG in %: 100%
PHBPU [11]
  Post-emergence action against PHBPU in %: 90%
ALOMY [12]; 20 g/ha, scored visually after 3 weeks, 100% = plants have died, 0% = like control plants
  Pre-emergence action against ALOMY: 80%
ALOMY [12]; 80 g/ha, pre-emergence, scored visually after 3 weeks vs untreated controls (100% = plants have died, 0% = like control plants)
  Pre-emergence action against ALOMY (herbicidal activity): 100%
ECHCG [13]
  Post-emergence action against ECHCG in %: 90%
SETVI [14]; dosage 20 g/ha
  Pre-emergence action against SETVI in %: 80%
SETVI [14]; dosage 80 g/ha
  Pre-emergence action against SETVI in %: 100%
POLCO
  Pre-emergence action against POLCO in %: 80%
AVEFA [15]; 5 g/ha
  Post-emergence action at 5 g/ha against AVEFA in %: 80%
AVEFA [15]; 20 g/ha
  Post-emergence action at 20 g/ha against AVEFA in %: 90%
VIOTR [16]; 5 g/ha
  Post-emergence action against VIOTR in %: 80%
VIOTR [16]; 20 g/ha
  Post-emergence action against VIOTR in %: 90%
LOLRI
  Pre-emergence action against LOLRI in %: 80%
AMARE [17]
  Post-emergence action at 20 g/ha against AMARE in %: 100%
MATIN [18]
  Post-emergence action against MATIN in %: 80%
VERPE [19]
  Pre-emergence action against VERPE in %: 100%
SETVI [20]
  Post-emergence action against SETVI in %: 90%
ALOMY [21]; dosage 5 g/ha
  Post-emergence action against ALOMY in %: 80%
ALOMY [21]; dosage 20 g/ha
  Post-emergence action against ALOMY in %: 90%
AVEFA [22]
  Pre-emergence action against AVEFA in %: 100%
